Reference: ChEMBL document CHEMBL1201862, “PubChem BioAssay data set” (2004)
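Step 1: Grow cells in 96-well plates. Step 2: Expose to compound for 48 hours at 5 concentrations. Step 3: Interpolate endpoints linearly; if unreached, use highest concentration. GI50 = concentration required for 50% inhibition of growth.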 Active and inactive are the calls of the source. Rule as the data show it: active = GI50 up to about 1.1 µM and inactive = higher.

What was measured:
Test in all cases: inhibition of tumour cell growth, NCI panel, 48 h
MCF7 = test system: MCF7
UACC-257 = test system: UACC-257
SW-620 = test system: SW-620
HCT-116 = test system: HCT-116
MDA-N = test system: MDA-N
786-0 = test system: 786-0
NCI-H23 = test system: NCI-H23
BT-549 = test system: BT-549
SK-OV-3 = test system: SK-OV-3
SF-295 = test system: SF-295
SNB-19 = test system: SNB-19
U-251 = test system: U-251
KM12 = test system: KM12
HT-29 = test system: HT-29
MOLT-4 = test system: MOLT-4
UACC-62 = test system: UACC-62
MDA-MB-231 = test system: MDA-MB-231
HCT-15 = test system: HCT-15
CCRF-CEM = test system: CCRF-CEM
A498 = test system: A498

Row | Structure (SMILES) | GI50 (MCF7) | GI50 (UACC-257) | GI50 (SW-620) | GI50 (HCT-116) | GI50 (MDA-N) | GI50 (786-0) | GI50 (NCI-H23) | GI50 (BT-549) | GI50 (SK-OV-3) | GI50 (SF-295) | GI50 (SNB-19) | GI50 (U-251) | GI50 (KM12) | GI50 (HT-29) | GI50 (MOLT-4) | GI50 (UACC-62) | GI50 (MDA-MB-231) | GI50 (HCT-15) [µM] | GI50 (CCRF-CEM) | GI50 (A498)
1 | CC(C)(C)CN1[C@@H]2CCCC[C@H]2N(CC(C)(C)C)P1(=O)Cc1ccccc1 | 12.8 µM (inactive) | 12.8 µM (inactive) | 14 µM (inactive) | 10.2 µM (inactive) | 14.9 µM (inactive) | 15.6 µM (inactive) | 13 µM (inactive) | 17.1 µM (inactive) | 15.1 µM (inactive) | 10.4 µM (inactive) | 14.6 µM (inactive) | 13.4 µM (inactive) | 13.1 µM (inactive) | 10.1 µM (inactive) | 11.5 µM (inactive) | 10.7 µM (inactive) | 12.2 µM (inactive) | 12 | 11 µM (inactive) | –
2 | CC(=O)N1CCOC12N=NC(C)(C)O2 (configuration not stated) | > 100 µM (inactive) | > 100 µM (inactive) | > 100 µM (inactive) | > 100 µM (inactive) | > 100 µM (inactive) | > 100 µM (inactive) | > 100 µM (inactive) | > 100 µM (inactive) | > 100 µM (inactive) | > 100 µM (inactive) | > 100 µM (inactive) | > 100 µM (inactive) | > 100 µM (inactive) | > 100 µM (inactive) | > 100 µM (inactive) | > 100 µM (inactive) | > 100 µM (inactive) | > 100 | – | > 100 µM (inactive)
3 | CC(=O)O[C@H]1C(=O)[C@@]2(C)[C@H]([C@H](OC(=O)c3ccccc3)[C@]3(O)C[C@H](OC(=O)[C@H](O)[C@@H](NC(=O)c4ccccc4)C4CCCCC4)C(C)=C1C3(C)C)[C@]1(OC(C)=O)CO[C@@H]1C[C@@H]2O | < 0.01 µM (active) | – | < 0.01 µM (active) | < 0.01 µM (active) | < 0.01 µM (active) | < 0.01 µM (active) | < 0.01 µM (active) | 0.0143 µM (active) | < 0.01 µM (active) | < 0.01 µM (active) | 0.013 µM (active) | < 0.01 µM (active) | < 0.01 µM (active) | < 0.01 µM (active) | < 0.01 µM (active) | < 0.01 µM (active) | < 0.01 µM (active) | 0.12 | < 0.01 µM (active) | –
4 | O=C(Cc1ccccc1)NCCCN(CCCCN(CCCNC(=O)Cc1ccccc1)C(=O)OCc1ccccc1)C(=O)OCc1ccccc1 | > 81.1 µM (inactive) | > 100 µM (inactive) | > 100 µM (inactive) | > 100 µM (inactive) | > 100 µM (inactive) | > 100 µM (inactive) | > 100 µM (inactive) | > 100 µM (inactive) | > 100 µM (inactive) | > 100 µM (inactive) | – | > 100 µM (inactive) | > 100 µM (inactive) | > 24.8 µM (inactive) | 4.49 µM (inactive) | > 100 µM (inactive) | > 100 µM (inactive) | > 43.4 | > 20.3 µM (inactive) | > 75.9 µM (inactive)
5 | Cc1c(-c2ccccc2)c(C#N)c2nnn(C3CCCCC3)c(=O)n12 | > 100 µM (inactive) | > 100 µM (inactive) | > 100 µM (inactive) | 52.6 µM (inactive) | > 100 µM (inactive) | 24.5 µM (inactive) | > 100 µM (inactive) | > 100 µM (inactive) | 60.3 µM (inactive) | 29.5 µM (inactive) | 66.5 µM (inactive) | 53.2 µM (inactive) | > 100 µM (inactive) | 11.6 µM (inactive) | – | > 100 µM (inactive) | 21.6 µM (inactive) | > 100 | > 100 µM (inactive) | 65.8 µM (inactive)
6 | COc1ccc2c(c1)CC[C@@H]1C2CC[C@]2(C)C(=O)N(CCN(C)C)C(=O)CC12 (some centres not stated) | > 100 µM (inactive) | > 100 µM (inactive) | > 100 µM (inactive) | > 100 µM (inactive) | > 100 µM (inactive) | > 100 µM (inactive) | > 100 µM (inactive) | > 100 µM (inactive) | > 100 µM (inactive) | > 100 µM (inactive) | > 100 µM (inactive) | > 100 µM (inactive) | > 100 µM (inactive) | > 100 µM (inactive) | > 100 µM (inactive) | > 100 µM (inactive) | > 100 µM (inactive) | – | > 100 µM (inactive) | > 100 µM (inactive)
7 | CCCCc1ccc(-n2sc3ncc(C)cc3c2=O)cc1 | 19.5 µM (inactive) | – | 27.4 µM (inactive) | 78 µM (inactive) | 51.5 µM (inactive) | 34.9 µM (inactive) | 30.1 µM (inactive) | 19.1 µM (inactive) | 28.6 µM (inactive) | 45.2 µM (inactive) | > 100 µM (inactive) | 32.7 µM (inactive) | 22.7 µM (inactive) | – | 25.2 µM (inactive) | 32.4 µM (inactive) | 25.6 µM (inactive) | 16.4 | 8.18 µM (inactive) | –
8 | COC(=O)c1c(O)ccc2c1c1c(n2Cc2ccc(Cl)cc2Cl)C(=O)c2ccccc2C1=O | 4.09 µM (inactive) | 15.2 µM (inactive) | 13.4 µM (inactive) | 3.91 µM (inactive) | 12.1 µM (inactive) | 10.1 µM (inactive) | 10.5 µM (inactive) | 13.2 µM (inactive) | 14.3 µM (inactive) | 11.8 µM (inactive) | 15.7 µM (inactive) | 10.8 µM (inactive) | 3.41 µM (inactive) | 17.6 µM (inactive) | 2.27 µM (inactive) | – | 10.9 µM (inactive) | 5.56 | 4.12 µM (inactive) | 18.1 µM (inactive)
9 | COC(=O)C1(C)C=CC(=O)C2(C)C1C(O)C1OC3CC(c4ccoc4)C(C)=C3C1(C)C2CC(=O)O (configuration not stated) | > 100 µM (inactive) | > 100 µM (inactive) | > 100 µM (inactive) | > 100 µM (inactive) | > 100 µM (inactive) | > 100 µM (inactive) | > 100 µM (inactive) | > 100 µM (inactive) | > 100 µM (inactive) | > 100 µM (inactive) | > 100 µM (inactive) | > 100 µM (inactive) | > 100 µM (inactive) | – | > 100 µM (inactive) | > 100 µM (inactive) | > 100 µM (inactive) | > 100 | > 100 µM (inactive) | > 100 µM (inactive)
10 | CCOc1ccc(/C=C2/C(=O)N/C(=N\C(C)=O)N2C)cc1 | 62.8 µM (inactive) | > 100 µM (inactive) | > 100 µM (inactive) | > 100 µM (inactive) | > 100 µM (inactive) | > 100 µM (inactive) | > 100 µM (inactive) | > 100 µM (inactive) | > 100 µM (inactive) | > 100 µM (inactive) | > 100 µM (inactive) | > 100 µM (inactive) | > 100 µM (inactive) | > 100 µM (inactive) | 39.6 µM (inactive) | > 100 µM (inactive) | > 100 µM (inactive) | 64.7 | – | > 100 µM (inactive)
11 | CCOC(=O)Cn1nnc2ccc(Nc3nc4ccccc4nc3C(=O)OCC)cc21 | > 100 µM (inactive) | > 100 µM (inactive) | > 100 µM (inactive) | > 100 µM (inactive) | > 100 µM (inactive) | 89.3 µM (inactive) | 45.9 µM (inactive) | 73.8 µM (inactive) | 59 µM (inactive) | 34.7 µM (inactive) | 69.5 µM (inactive) | 74 µM (inactive) | > 100 µM (inactive) | > 100 µM (inactive) | > 100 µM (inactive) | 65.3 µM (inactive) | – | > 100 | > 100 µM (inactive) | > 100 µM (inactive)
12 | Cn1c(=O)n2n(c1=O)C(S(=O)(=O)c1ccccc1)C2 (configuration not stated) | > 100 µM (inactive) | > 100 µM (inactive) | > 100 µM (inactive) | > 100 µM (inactive) | > 100 µM (inactive) | > 100 µM (inactive) | > 100 µM (inactive) | > 100 µM (inactive) | > 100 µM (inactive) | > 100 µM (inactive) | > 100 µM (inactive) | > 100 µM (inactive) | > 100 µM (inactive) | > 100 µM (inactive) | > 100 µM (inactive) | > 100 µM (inactive) | > 100 µM (inactive) | > 100 | > 100 µM (inactive) | –
13 | Cn1c(=O)c2c(nc(-n3nc(-c4ccc(Cl)cc4)cc3N)n2C)n(C)c1=O | 68.4 µM (inactive) | > 100 µM (inactive) | – | 19.1 µM (inactive) | > 100 µM (inactive) | 6.9 µM (inactive) | > 100 µM (inactive) | 44.5 µM (inactive) | 18.1 µM (inactive) | 25.5 µM (inactive) | > 100 µM (inactive) | > 100 µM (inactive) | > 100 µM (inactive) | > 100 µM (inactive) | 11.6 µM (inactive) | 65.6 µM (inactive) | > 100 µM (inactive) | > 100 | > 100 µM (inactive) | > 100 µM (inactive)
14 | COC(=O)C1CC2(CCC1=O)Cc1ccccc1C2=O (configuration not stated) | > 100 µM (inactive) | > 100 µM (inactive) | > 100 µM (inactive) | 87.7 µM (inactive) | > 100 µM (inactive) | > 100 µM (inactive) | > 100 µM (inactive) | > 100 µM (inactive) | > 100 µM (inactive) | 82.2 µM (inactive) | > 100 µM (inactive) | > 100 µM (inactive) | > 100 µM (inactive) | > 100 µM (inactive) | 48.5 µM (inactive) | > 100 µM (inactive) | > 100 µM (inactive) | > 100 | 50.4 µM (inactive) | –
15 | COc1ccc(CN2C(=O)CCC/C=C\[C@H]2CI)cc1 | 10.7 µM (inactive) | 10.1 µM (inactive) | 11.6 µM (inactive) | 11.7 µM (inactive) | 13.1 µM (inactive) | 14 µM (inactive) | 15.1 µM (inactive) | 19.5 µM (inactive) | 16 µM (inactive) | 13.5 µM (inactive) | 13.2 µM (inactive) | 13.6 µM (inactive) | 11 µM (inactive) | 9.71 µM (inactive) | 10.1 µM (inactive) | 10.8 µM (inactive) | 11 µM (inactive) | 12.4 | – | 12.5 µM (inactive)
